Earlier results as cited in PMC11258486, “Phase 1 dose escalation study of the MDM2 inhibitor milademetan as monotherapy and in combination with azacitidine in patients with myeloid malignancies” (Cancer Medicine, 2024).

Tests used:
[1] = system: AML; set-up: method as in PMID 26459177; conditions: phase 1 clinical study in AML; cited from earlier work
[2] = system: relapsed/refractory AML; set-up: method as in PMID 35413116; conditions: relapsed/refractory AML and wild‐type p53; cited from earlier work

| SMILES | response rate [1] | overall response rate [2] [%] |
| --- | --- | --- |
| CCOc1cc(C(C)(C)C)ccc1C1=N[C@@](C)(c2ccc(Cl)cc2)[C@@](C)(c2ccc(Cl)cc2)N1C(=O)N1CCN(CCCS(C)(=O)=O)CC1 [RG7112] | ~ 25% |  |
| Nc1ccn([C@@H]2O[C@H](CO)[C@@H](O)[C@@H]2O)c(=O)n1 [cytarabine] |  | 22 |
